According to ChEMBL document CHEMBL1201862, “PubChem BioAssay data set” (2004):
Blank lines part the entries; values can stand above or below the molecule they belong to. The source made the active and inactive calls.

Key:
[1] = cytotoxicity in HEK-293T cells, dose response, cytotoxicity control for TCR NF-kB inhibitor project, luminescence, T-cell screen hits (AID 489026); type: functional, cell-based;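 further: cells exposed to compound about 14 hours before the viability readout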
[2] = biological target: T1, Corticotropin-releasing factor receptor 2/Corticotropin-releasing factor-binding protein (Homo sapiens, UniProt P24387+Q13324); experiment: Dose Response confirmation of uHTS hits for small molecule antagonists of the CRF-binding protein and CRF-R2 receptor complex.; type: functional; details: read-out: IC50_Mean
T1 sequence (Q13324 whole entry): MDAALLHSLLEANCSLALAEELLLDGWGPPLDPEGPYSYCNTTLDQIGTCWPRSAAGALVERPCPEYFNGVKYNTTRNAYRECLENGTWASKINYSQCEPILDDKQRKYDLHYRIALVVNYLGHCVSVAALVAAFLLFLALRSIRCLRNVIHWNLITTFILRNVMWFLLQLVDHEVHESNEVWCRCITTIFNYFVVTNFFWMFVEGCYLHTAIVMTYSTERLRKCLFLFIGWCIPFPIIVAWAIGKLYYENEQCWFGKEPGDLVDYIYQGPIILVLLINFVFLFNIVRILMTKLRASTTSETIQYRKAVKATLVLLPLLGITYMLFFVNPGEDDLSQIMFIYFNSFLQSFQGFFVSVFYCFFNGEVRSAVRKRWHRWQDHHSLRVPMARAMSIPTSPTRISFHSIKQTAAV
T1 sequence (P24387 whole entry): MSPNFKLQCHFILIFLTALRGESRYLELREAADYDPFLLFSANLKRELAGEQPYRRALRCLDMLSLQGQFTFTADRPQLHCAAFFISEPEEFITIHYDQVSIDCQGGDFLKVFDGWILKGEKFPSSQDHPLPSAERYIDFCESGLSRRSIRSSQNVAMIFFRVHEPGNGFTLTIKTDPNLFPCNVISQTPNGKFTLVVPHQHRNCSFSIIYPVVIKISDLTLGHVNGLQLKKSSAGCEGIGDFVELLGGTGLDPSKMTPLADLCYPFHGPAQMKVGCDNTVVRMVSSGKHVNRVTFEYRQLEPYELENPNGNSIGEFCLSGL

[3] = biological target: T1, Corticotropin-releasing factor receptor 2/Corticotropin-releasing factor-binding protein; experiment: activators of CRF receptor 2 with binding protein – uHTS hits, confirmation (AID 602473); type: functional; details: read-out: EC50_Mean
[4] = cytotoxicity toward DRD oncogenic fibroblasts, dose response, cell-based, non-viral oncogenic, luminescence (AID 1934); type: functional; details: Homo sapiens
BJ [5] = experiment: cytotoxicity toward BJ-TERT fibroblasts, dose response, cell-based, RAS-independent, luminescence (AID 1933); type: functional; details: Homo sapiens
BJ [6] = experiment: cytotoxicity toward BJ-TERT-LT-ST fibroblasts, dose response, cell-based, RAS-independent, luminescence (AID 1935); type: functional; details: Homo sapiens;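 further: BJ fibroblasts immortalized with TERT plus LT and ST oncogenes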
BJ [7] = experiment: cells; type: functional, cell-based; details: Homo sapiens
Fatty acid synthase [8] = biological target: T2, Fatty acid synthase (Homo sapiens, UniProt P49327); experiment: FAS thioesterase domain inhibitors, dose response, biochemical, kinetic fluorescence intensity (AID 624326); type: functional;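 further: rate of fluorescence rise from hydrolysis of a fluorogenic O-methyl fluorescein ester substrate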
Fatty acid synthase [9] = biological target: T2, Fatty acid synthase; experiment: FAS thioesterase domain inhibitors, dose response, biochemical, endpoint fluorescence intensity, uHTS hits (AID 624327); type: functional;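 further: fluorescence from hydrolysis of an O-methyl fluorescein acyl ester substrate by the enzyme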
cells [10] = type: functional, cell-based
cells [11] = type: functional, cell-based; remark: listed apart in the source
[12] = Shn3 3'UTR reporter inhibitors, dose response, cell-based, Clone20 osteoblasts, firefly luciferase, cherry-picked (AID 624132); type: functional;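 further: firefly luciferase luminescence from reporter carrying the Shn3 3'UTR in osteoblasts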
[13] = control 3'UTR Renilla luciferase suppression, dose response, counter-screen for Shn3 inhibitor project, cell-based, Clone20-Shn3RL, cherry-picked (AID 624133); type: functional
INS1 = experiment: beta cell apoptosis inhibitors, cytokine rescue, dose response, luminescence, retest (AID 449756); type: functional, cell-based; details: Rattus norvegicus;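 further: cell death triggered by IL-1 beta plus TNF-alpha plus IFN-gamma mixture; protective hits raise ATP signal compared with cytokine alone wells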
[14] = HepG2 cell cytotoxicity, dose response, cytotoxicity control for Shn3 inhibitor project, CellTiter-Glo, cherry-picked (AID 624134); type: functional, cell-based

T2 sequence (P49327 whole entry, the tested form may be a part): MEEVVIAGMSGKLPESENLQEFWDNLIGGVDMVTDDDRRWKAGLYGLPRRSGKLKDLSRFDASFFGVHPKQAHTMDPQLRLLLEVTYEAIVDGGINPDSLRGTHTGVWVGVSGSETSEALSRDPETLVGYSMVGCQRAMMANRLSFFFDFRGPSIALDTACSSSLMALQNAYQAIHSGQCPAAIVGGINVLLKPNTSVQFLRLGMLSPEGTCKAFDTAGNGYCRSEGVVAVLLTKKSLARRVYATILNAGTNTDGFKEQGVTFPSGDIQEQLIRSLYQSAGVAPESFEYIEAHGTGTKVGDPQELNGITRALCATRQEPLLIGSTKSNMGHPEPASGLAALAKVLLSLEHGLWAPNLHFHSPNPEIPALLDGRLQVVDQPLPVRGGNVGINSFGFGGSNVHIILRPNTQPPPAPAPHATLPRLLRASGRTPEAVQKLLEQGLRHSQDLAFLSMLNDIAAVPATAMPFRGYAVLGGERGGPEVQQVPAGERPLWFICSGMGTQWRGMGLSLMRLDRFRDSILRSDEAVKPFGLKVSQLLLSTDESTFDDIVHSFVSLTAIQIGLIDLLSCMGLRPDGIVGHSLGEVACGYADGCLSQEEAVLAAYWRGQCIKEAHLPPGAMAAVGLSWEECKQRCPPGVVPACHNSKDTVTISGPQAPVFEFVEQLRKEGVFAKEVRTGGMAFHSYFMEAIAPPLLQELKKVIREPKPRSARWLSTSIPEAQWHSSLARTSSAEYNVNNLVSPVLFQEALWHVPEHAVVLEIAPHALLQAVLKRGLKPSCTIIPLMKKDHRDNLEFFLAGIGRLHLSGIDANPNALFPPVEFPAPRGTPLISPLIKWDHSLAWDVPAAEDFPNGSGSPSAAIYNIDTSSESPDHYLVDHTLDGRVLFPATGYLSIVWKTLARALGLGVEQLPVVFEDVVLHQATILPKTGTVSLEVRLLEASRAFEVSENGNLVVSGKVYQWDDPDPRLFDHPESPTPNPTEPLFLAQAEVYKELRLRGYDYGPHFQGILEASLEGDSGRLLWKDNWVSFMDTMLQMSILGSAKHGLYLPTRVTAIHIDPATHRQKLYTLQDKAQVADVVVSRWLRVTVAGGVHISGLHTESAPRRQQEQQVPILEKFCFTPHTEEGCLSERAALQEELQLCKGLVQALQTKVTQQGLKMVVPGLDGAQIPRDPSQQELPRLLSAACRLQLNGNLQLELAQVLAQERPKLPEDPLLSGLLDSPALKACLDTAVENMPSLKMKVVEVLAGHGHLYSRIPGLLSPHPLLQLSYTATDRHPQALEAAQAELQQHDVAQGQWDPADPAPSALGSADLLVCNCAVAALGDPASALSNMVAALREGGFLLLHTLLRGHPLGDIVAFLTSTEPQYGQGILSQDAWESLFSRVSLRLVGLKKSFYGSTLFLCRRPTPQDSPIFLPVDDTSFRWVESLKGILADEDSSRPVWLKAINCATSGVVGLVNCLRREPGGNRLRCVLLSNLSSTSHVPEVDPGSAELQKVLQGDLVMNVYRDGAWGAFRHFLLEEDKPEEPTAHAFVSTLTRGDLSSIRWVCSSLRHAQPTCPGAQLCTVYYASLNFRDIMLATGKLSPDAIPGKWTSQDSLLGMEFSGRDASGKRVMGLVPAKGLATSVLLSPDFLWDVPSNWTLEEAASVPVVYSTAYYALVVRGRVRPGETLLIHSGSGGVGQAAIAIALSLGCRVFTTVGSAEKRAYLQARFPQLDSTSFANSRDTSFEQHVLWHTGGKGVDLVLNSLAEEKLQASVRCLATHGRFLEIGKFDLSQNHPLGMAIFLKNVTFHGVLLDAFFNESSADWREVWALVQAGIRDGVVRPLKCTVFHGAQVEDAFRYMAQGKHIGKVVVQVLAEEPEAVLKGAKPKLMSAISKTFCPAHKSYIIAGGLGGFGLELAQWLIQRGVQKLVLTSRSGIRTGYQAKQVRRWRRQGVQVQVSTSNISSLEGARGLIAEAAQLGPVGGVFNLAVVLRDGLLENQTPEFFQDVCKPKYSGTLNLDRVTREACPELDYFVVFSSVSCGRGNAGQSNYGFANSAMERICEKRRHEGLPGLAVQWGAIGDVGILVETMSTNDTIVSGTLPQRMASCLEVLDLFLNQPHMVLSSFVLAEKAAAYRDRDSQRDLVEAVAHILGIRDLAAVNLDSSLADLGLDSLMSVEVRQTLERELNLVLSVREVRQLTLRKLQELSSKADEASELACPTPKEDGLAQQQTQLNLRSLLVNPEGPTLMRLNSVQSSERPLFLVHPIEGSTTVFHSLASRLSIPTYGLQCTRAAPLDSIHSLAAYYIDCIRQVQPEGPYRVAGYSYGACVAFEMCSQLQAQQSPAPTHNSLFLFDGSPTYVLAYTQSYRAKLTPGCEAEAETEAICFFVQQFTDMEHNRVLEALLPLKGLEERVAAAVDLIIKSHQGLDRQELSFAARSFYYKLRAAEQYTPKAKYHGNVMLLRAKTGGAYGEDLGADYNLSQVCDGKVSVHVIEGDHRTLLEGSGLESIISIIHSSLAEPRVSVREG

SMILES: COc1ccc(Nc2nc3cc(C)ccc3cc2C#N)c(OC)c1
- IC50 [1]: > 80 µM (inactive)

SMILES: COC(=O)c1ccc(Oc2cc(C)nc(SC)n2)cc1
- IC50 [1]: > 80 µM (inactive)

- IC50 [2]: > 47.1 µM (inactive)
- EC50 [3]: > 53 µM (inactive)
SMILES: COc1ccc(NC(=O)CCN2CCCCCC2)cc1

SMILES: Cc1ccc(C(=O)c2cc([N+](=O)[O-])ccc2N2CCCCC2)cc1C
- EC50 [4]: 0.966 µM (active)
- IC50 [1]: > 80 µM (inactive)
- EC50 (BJ [5]): 1.69 µM (active)
- EC50 (BJ [6]): 1.33 µM (active)
- EC50 (BJ [7]): 35.6 µM (active)

- IC50 [2]: > 47.1 µM (inactive)
- EC50 [3]: > 53 µM (inactive)
SMILES: CC(=O)N(Cc1ccco1)c1nc(C(=O)Nc2ccc(Cl)cc2)c(C)s1

- IC50 (Fatty acid synthase [8]): 4.84 µM (active)
- IC50 (Fatty acid synthase [9]): 4.1 µM (active)
SMILES: COc1ccc(C(=O)OCC(=O)NCCCc2ccccc2)cc1[N+](=O)[O-]

SMILES: CCCCC(=O)N1CCN(c2nc3ccc(F)cc3s2)CC1
- EC50 (cells [10]): 4.69 µM (active)
- EC50 (cells [11]): > 350 µM (not active)

- IC50 [2]: > 47.1 µM (inactive)
- EC50 [3]: > 53 µM (inactive)
SMILES: O=C(CC1N=C2c3ccccc3N=C(SCc3ccccc3Cl)N2C1=O)NCc1ccco1 (stereo not drawn)

SMILES: CC(=O)N1CCCc2cc(S(=O)(=O)N3CCCC(C(=O)N4CCN(c5cccc(Cl)c5)CC4)C3)ccc21 (stereo not drawn)
- AC50 [12]: 1.9 µM (active)
- AC50 [13]: 1.13 µM (active)
- AC50 (INS1): 2.88 µM (active)
- AC50 [14]: 3.29 µM (active)

- IC50 (Fatty acid synthase [8]): 3.08 µM (active)
- IC50 (Fatty acid synthase [9]): 5.57 µM (active)
SMILES: C=CCOC(=O)COc1ccc2c(C)c(CC)c(=O)oc2c1

SMILES: CCCCC1(Cc2ccc([N+](=O)[O-])cc2)C(=O)N(c2ccccc2)N(c2ccccc2)C1=O
- AC50 [12]: 10.2 µM (active)
- AC50 [13]: 3.42 µM (active)
- AC50 (INS1): 3.67 µM (active)
- AC50 [14]: 66.8 µM (active)

SMILES: CCN(CC)S(=O)(=O)c1ccc(NC(=O)c2ccc(CN3CCOCC3)cc2)cc1
- IC50 [1]: > 80 µM (inactive)
